The values below come from patent US9328122B2, “7-substituted Hanfangichin B derivative, and preparation method and use thereof” (HANGZHOU BENSHENG PHARMACEUTICAL CO., LTD., priority 2012, dated 2016).

In brackets after ≈: the same amount, converted by molar mass. Where only a bound is given, the exact number is not on record here.

For series [1], the system named is H9 (acute lymphoblastic leukemia) cells. The series can be described thus: MTT cell growth inhibition, leukemia cells. It counts as cell-based, human. Conditions: for IC50 / IC90: Homo sapiens, H9, 72 h, MTT; for IC50: read-out: IC50; for IC90: read-out: IC90. An excerpt:
(§1) Leukemia cell lines: leukemia cell lines: K562adr (drug-resistant, chronic myeloid leukemia, CML), NB4 (acute promyelocytic leukemia, AML), Kasumi-1 (acute myeloid leukemia M2 type, AML-M2), Jurkat (acute lymphoblastic leukemia, ALL), all of which were donated by Cancer Research Institute of Zhejiang University, China; and H9 (acute lymphoblastic leukemia, ALL), which was purchased from China Center for Type Culture Collection.
(§2) Reagents: The standard sample of fangchinoline (FAN) was purchased from Ci Yuan Biotechnology Co., Ltd., Shaanxi, China; and the 7-substituted fangchinoline derivatives according to the present invention.
(§3) 6000 well-growing leukemia cells were obtained and inoculated into wells of a 96-well cell culture plate. The culture medium was a RPMI-1640 cell culture medium containing 10% fetal bovine serum. After adding the 7-substituted fangchinoline derivatives of different concentrations the next day and mixing uniformly, the plate was placed in a carbon dioxide cell incubator (5% CO2) at 37° C. and incubating for 72 hours. Then the viable cell concentration was determined by the MTT method.

Series [2] has as its system Kasumi-1 (acute myeloid leukemia M2 type) cells. The series can be described thus: MTT cell growth inhibition, leukemia cells. The class given is cell-based, human. The note with it: for IC50 / IC90: Homo sapiens, Kasumi-1, 72 h, MTT; for IC50: read-out: IC50; for IC90: read-out: IC90.
From the text: as §1, §2, §3

The subject of series [3] is Jurkat (acute lymphoblastic leukemia) cells. The series can be described thus: MTT cell growth inhibition, leukemia cells. It counts as cell-based, human. The note with it: for IC50 / IC90: Homo sapiens, Jurkat, 72 h, MTT; for IC50: read-out: IC50; for IC90: read-out: IC90.
From the text: as §1, §2, §3

Series [4] relates to Hep G2 transplanted tumor. As to the kind of experiment: Transplanted tumor of liver cancer in nude mice.
Procedure: Liver cancer cell lines: Hep G2 (human liver cancer cell line);
Animal: BALBc nude mice (immunodeficient mice), 8 weeks, female, purchased from Shanghai Laboratory Animal Center of Chinese Academy of Sciences, China.
Under sterile conditions, the Hep G2 cells in the logarithmic growth phase were respectively collected and injected subcutaneously in an amount of 2.3×10^7/0.2 mL/nude mice (cell viability >90%) into the left subaxillary of the nude mice, thus establishing a transplanted tumor model of liver cancer in nude mice. The mice were administered from the second day after inoculation. The experimental group was intragastrically administered with the experimentally designed amount, the negative control group was intragastrically administered with sterile water, and the positive control group was intragastrically administered with erlotinib hydrochloride. Each mouse was intragastrically administered in 0.4 ml each time and 3 times a day, at 8:00, 14:00 and 20:00, with 6-hour intervals. The administrations were successive for 10 days. The day before administration was deemed as Day 0 and the weight and tumor size of the mice were determined every 5 days to produce a dynamic plot on weight and tumor growth (the experimental results are presented as mean±SD). On Day 28, the mice were sacrificed and the tumors were taken out and weighed. The tumor inhibition rate (%) after the effect of the medicament was calculated based on a tumor inhibition rate of the control group being zero.
The experimental data for each group were analyzed by using the One-way ANOVA method in the SPSS 19.0 statistical software and were compared with the control group for significance of difference.
For series [5], the system named is KCL-22M transplanted tumor. As to the kind of experiment: Transplanted tumor of leukemia in nude mice. The class given is in vivo, BALBc nude mice. How it is done: Leukemia cell lines: KCL-22M (human chronic myeloid leukemia mutant strain);
The mice were administered from the second day after the inoculation. […] The administrations were successive for 10 days. […] On Day 25, the mice were sacrificed and the tumors are taken out and weighed.

Where [6] appears, read: relative to fangchinoline, Table 1.

What is called IC50 is the concentration that inhibits the measured activity by half. The term IC90 denotes the concentration at which the effect reaches the 90% level.

With `COc1ccc2cc1Oc1ccc(cc1)C[C@H]1c3cc(c(OC)cc3CCN1C)Oc1c(OC(=O)c3ccc(N(C)C)cc3)c(OC)cc3c1[C@H](C2)N(C)CC3` [BS-FC-308], the results for the IC50 in series [1], in series [2] and in series [3] were 0.7 mg/L (≈ 0.926 µM), 0.81 mg/L (≈ 1.07 µM) and 0.36 mg/L (≈ 0.476 µM), respectively. Besides, the IC90 stood at 1.8 mg/L (≈ 2.38 µM) in series [1], 1.9 mg/L (≈ 2.51 µM) in series [2] and 1.62 mg/L (≈ 2.14 µM) in series [3]. Also, the “anti-H9 activity increase over fangchinoline” value in series [1] (setting [6]) was more than 3 fold. For the same compound, the “anti-Jurkat activity increase over fangchinoline” value in series [3] (setting [6]) is “more than 4 fold”. In addition, the Mass of tumor in series [4] (Hep G2 transplanted tumor, Day 28, intragastric 3 times a day for 10 days, BS-FC-308 35 mg/kg/time, erlotinib hydrochloride 20 mg/kg/time) turned out to be 566 ± 112.26 mg; in series [5] (KCL-22M transplanted tumor, Day 25, 30 mg/kg/time intragastric 3 times a day for 10 days), 521 ± 249 mg. The “Tumor Inhibition rate” value in series [4] (Hep G2 transplanted tumor, Day 28, intragastric 3 times a day for 10 days, BS-FC-308 35 mg/kg/time, erlotinib hydrochloride 20 mg/kg/time, control = 0) is listed as 55.82%; in series [5] (KCL-22M transplanted tumor, Day 25, 30 mg/kg/time intragastric 3 times a day for 10 days, control = 0), 74.45%. In addition, the “Body Weight (g) Initial” value is recorded as 21.8 ± 0.62 g in series [4] (Hep G2 tumor nude mice, before administration, intragastric 3 times a day, BS-FC-308 35 mg/kg/time, erlotinib hydrochloride 20 mg/kg/time, mean±SD) and 19.5 ± 0.2 g in series [5] (KCL-22M tumor nude mice, before administration, 30 mg/kg/time intragastric 3 times a day, mean±SD). In addition, the “Body Weight (g) Final” value is recorded as 19.0 ± 0.49 g in series [4] (Hep G2 tumor nude mice, final, intragastric 3 times a day for 10 days, BS-FC-308 35 mg/kg/time, erlotinib hydrochloride 20 mg/kg/time, mean±SD) and 15.4 ± 1.51 g in series [5] (KCL-22M tumor nude mice, final, 30 mg/kg/time intragastric 3 times a day for 10 days, mean±SD). Besides, the “weight of the Hep G2 transplanted tumors (FIG. 3)” value in series [4] (nude mice) is on record as “significantly reduces”. Further, the “animal's weight during the administration (toxic and side effects)” value in series [5] (30 mg/kg/time, three administrations per day, weight rebounded after administration was stopped) is recorded as “weight was reduced”.

For the compound `COc1cc(OC)cc(C(=O)Oc2c(OC)cc3c4c2Oc2cc5c(cc2OC)CCN(C)[C@H]5Cc2ccc(cc2)Oc2cc(ccc2OC)C[C@@H]4N(C)CC3)c1` [BS-FC-311], the half-maximal inhibitory concentration (IC50) worked out at 1.2 mg/L (≈ 1.55 µM) in series [1], 0.57 mg/L (≈ 0.737 µM) in series [2] and 0.51 mg/L (≈ 0.66 µM) in series [3]. Besides, the IC90 in series [1] turned out to be 2 mg/L (≈ 2.59 µM); in series [2] it was 1.85 mg/L (≈ 2.39 µM); in series [3] it was 0.98 mg/L (≈ 1.27 µM). Besides, the “anti-Kasumi-1 activity increase over fangchinoline” value in series [2] (setting [6]) is on record as approximately 2 fold.

Take `COc1ccc2cc1Oc1ccc(cc1)C[C@H]1c3cc(c(OC)cc3CCN1C)Oc1c(OC(=O)c3c(F)cccc3Cl)c(OC)cc3c1[C@H](C2)N(C)CC3` [BS-FC-315]: the values for the IC50 in series [1], in series [2] and in series [3] were 2 mg/L (≈ 2.61 µM), 0.85 mg/L (≈ 1.11 µM) and 0.59 mg/L (≈ 0.771 µM), respectively. The 90% effect concentration (IC90) in series [1] stood at 3.77 mg/L (≈ 4.93 µM); in series [2], 3.04 mg/L (≈ 3.97 µM); in series [3] it was 1.24 mg/L (≈ 1.62 µM).

Turning to `COc1ccc2cc1Oc1ccc(cc1)C[C@H]1c3cc(c(OC)cc3CCN1C)Oc1c(OCC(O)CN3CCCCC3)c(OC)cc3c1[C@H](C2)N(C)CC3` (stereo partly shown) [BS-FC-403], the figures for the IC50 in series [1], in series [2] and in series [3] were 0.88 mg/L (≈ 1.17 µM), 0.88 mg/L (≈ 1.17 µM) and 0.58 mg/L (≈ 0.773 µM), respectively. Further, the concentration for an effect of 90% (IC90) in series [1] worked out at 1.9 mg/L (≈ 2.53 µM); in series [2] it was 2 mg/L (≈ 2.67 µM); in series [3], 0.96 mg/L (≈ 1.28 µM).

Turning to `COc1ccc2cc1Oc1ccc(cc1)C[C@H]1c3cc(c(OC)cc3CCN1C)Oc1c(OCC(O)CNCC3CC3)c(OC)cc3c1[C@H](C2)N(C)CC3` (stereo partly shown) [BS-FC-405], the 50% inhibitory concentration (IC50) in series [1] came out at 1.45 mg/L (≈ 1.97 µM); in series [2], 0.76 mg/L (≈ 1.03 µM); in series [3] it was 0.56 mg/L (≈ 0.761 µM). The IC90 came out at 2.9 mg/L (≈ 3.94 µM) in series [1], 1.75 mg/L (≈ 2.38 µM) in series [2] and 0.99 mg/L (≈ 1.35 µM) in series [3].

Take `C=CCN(C)CC(O)COc1c(OC)cc2c3c1Oc1cc4c(cc1OC)CCN(C)[C@H]4Cc1ccc(cc1)Oc1cc(ccc1OC)C[C@@H]3N(C)CC2` (stereo partly shown) [BS-FC-409]: the results for the IC50 in series [1], in series [2] and in series [3] were 0.9 mg/L (≈ 1.22 µM), 1.46 mg/L (≈ 1.98 µM) and 1.02 mg/L (≈ 1.39 µM), respectively. The IC90 is 2 mg/L (≈ 2.72 µM) in series [1], 4.82 mg/L (≈ 6.55 µM) in series [2] and 3.33 mg/L (≈ 4.52 µM) in series [3].

Take `COc1ccc2cc1Oc1ccc(cc1)C[C@H]1c3cc(c(OC)cc3CCN1C)Oc1c(OCC(O)CN3CCCC(C)C3)c(OC)cc3c1[C@H](C2)N(C)CC3` (stereo partly shown) [BS-FC-410]: the IC50 in series [1] was 1.13 mg/L (≈ 1.48 µM); in series [2], 0.84 mg/L (≈ 1.1 µM); in series [3], 0.64 mg/L (≈ 0.838 µM). Further, the values for the IC90 in series [1], in series [2] and in series [3] were 2 mg/L (≈ 2.62 µM), 1.86 mg/L (≈ 2.43 µM) and 1.61 mg/L (≈ 2.11 µM), respectively.

For `COc1ccc2cc1Oc1ccc(cc1)C[C@H]1c3cc(c(OC)cc3CCN1C)Oc1c(OCC(O)CN3CCSCC3)c(OC)cc3c1[C@H](C2)N(C)CC3` (stereo partly shown) [BS-FC-417], the IC50 in series [1] was 1.3 mg/L (≈ 1.69 µM); in series [2], 1.45 mg/L (≈ 1.89 µM); in series [3], 1.24 mg/L (≈ 1.61 µM). Moreover, the results for the IC90 in series [1], in series [2] and in series [3] were 3.6 mg/L (≈ 4.69 µM), 3.63 mg/L (≈ 4.73 µM) and 5.47 mg/L (≈ 7.12 µM), respectively.

For `COc1ccc2cc1Oc1ccc(cc1)C[C@H]1c3cc(c(OC)cc3CCN1C)Oc1c(OCC(O)CN3CCN(C#N)CC3)c(OC)cc3c1[C@H](C2)N(C)CC3` (stereo partly shown) [BS-FC-421], the half-inhibitory concentration (IC50) was 1 mg/L (≈ 1.29 µM) in series [1], 0.95 mg/L (≈ 1.22 µM) in series [2] and 0.97 mg/L (≈ 1.25 µM) in series [3]. Further, the IC90 in series [1] is 2.8 mg/L (≈ 3.61 µM); in series [2], 2.55 mg/L (≈ 3.29 µM); in series [3], 3.79 mg/L (≈ 4.88 µM).
